This is an account of results in patent US10654816B2, “Compounds and compositions for treating conditions associated with NLRP activity” (NOVARTIS INFLAMMASOME RESEARCH, INC., priority 2017, dated 2020).

The first assay has as its system IL-1β production in PMA-differentiated THP-1 cells. The assay is described as follows: IL-1β production in PMA-differentiated THP-1 cells stimulated with gramicidin (hTHP-1 assay, HTRF readout; Procedures 1-3). The settings on record: Homo sapiens, THP-1, hTHP-1 assay containing 2% fetal bovine serum; average; class symbols; read-out: hTHP-1 IC50 (Average IC50 of compounds in hTHP-1 assay). The class given is cell-based, human. In short, it runs like this:
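PMA-differentiated (20 ng/ml, 16-18 h) THP-1 cells in RPMI with 2% FBS, 50,000 cells/well, preincubated 1 h with compound (final 0.0017-100 μM, 0.37% DMSO), then stimulated with 5 μM gramicidin for 2 h. IL-1β in cell-free supernatant measured by HTRF (620/668 nm).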
On the technique in general: In TR-FRET formats the signal depends on donor and acceptor labels being close together.
By IC50 is commonly meant the concentration that inhibits the measured activity by half. In the case of `Cc1oc(S(N)(=O)=NC(=O)Nc2c3c(cc4c2CCC4)CCC3)cc1C(C)(C)O` (centres unmarked) [Example 1, N′-(1,2,3,5,6,7-hexahydro-s-indacen-4-ylcarbamoyl)-4-(2-hydroxypropan-2-yl)-5-methylfuran-2-sulfonimidamide], the IC50 was in the range of 0.008 to 0.04 µM. As to `CC(C)c1cc(F)cc(C(C)C)c1NC(=O)N=S(N)(=O)c1cnc2c(cnn2C)c1` (centres unmarked) [Example 430, 3-[amino({1-methyl-1H-pyrazolo[3,4-b]pyridin-5-yl})oxo-λ^6-sulfanylidene]-1-[4-fluoro-2,6-bis(propan-2-yl)phenyl]urea], the IC50 fell in the range of 5 to 30 µM. For `CC(C)c1cc(F)cc(C(C)C)c1NC(=O)N=S(N)(=O)c1ccc2c(c1)CCO2` (centres unmarked) [Example 211, N′-((4-fluoro-2,6-diisopropylphenyl)carbamoyl)-2,3-dihydrobenzofuran-5-sulfonimidamide], the half-inhibitory concentration (IC50) was in the range of 5 to 30 µM. As to `NS(=O)(=NC(=O)Nc1c2c(cc3c1CCC3)CCC2)c1ccc(CN2CCOCC2)cc1` (centres unmarked) [Example 234, N′-(1,2,3,5,6,7-hexahydro-s-indacen-4-ylcarbamoyl)-4-(morpholino-methyl)benzenesulfonimidamide], the IC50 lay within 1 to 5 µM.

On to `CC(C)(O)c1nc(CO)c(S(N)(=O)=NC(=O)Nc2c3c(c(C#N)c4c2CCC4)CCC3)s1` (centres unmarked) [Example 69, N′-((8-cyano-1,2,3,5,6,7-hexahydro-s-indacen-4-yl)carbamoyl)-4-(hydroxymethyl)-2-(2-hydroxypropan-2-yl)thiazole-5-sulfonimidamide], for which the IC50 lay within 1 to 5 µM. For the compound `CN(C)Cc1ccc(S(N)(=O)=NC(=O)Nc2c3c(cc4c2CCC4)CCC3)cc1F` (centres unmarked) [Example 280, 4-((dimethylamino)methyl)-3-fluoro-N′-((1,2,3,5,6,7-hexahydro-s-indacen-4-yl)carbamoyl)benzenesulfonimidamide], the IC50 was in the range of 0.2 to 1 µM. Still for that read-out and setting: the same measure for `CC(C)(O)c1cnc(S(N)(=O)=NC(=O)Nc2c3c(cc4c2CCC4)CCC3)s1` (centres unmarked) [Example 64, N′-((1,2,3,5,6,7-hexahydro-s-indacen-4-yl)carbamoyl)-5-(2-hydroxypropan-2-yl)thiazole-2-sulfonimidamide]: […]; for `CC(C)c1cc(C#N)cc(C(C)C)c1NC(=O)N=S(N)(=O)c1ccc(C(C)(C)O)c(CO)c1` (single isomer, unassigned) [Example 188, (S)- or (R)-N′-((4-cyano-2,6-diisopropylphenyl)carbamoyl)-3-(hydroxymethyl)-4-(2-hydroxypropan-2-yl)benzenesulfonimidamide]: 1 to 5 µM.

For the compound `CC(C)c1cc(OC(F)F)cc(C2CC2)c1NC(=O)N=S(N)(=O)c1ccc(C(C)(C)O)cc1F` (centres unmarked) [Example 54], the IC50 fell in the range of 1 to 5 µM.

For the compound `CN1CCc2cc(S(N)(=O)=NC(=O)Nc3c4c(cc5c3CCC5)CCC4)ccc2C1` (centres unmarked) [Example 270, N′-((1,2,3,5,6,7-hexahydro-s-indacen-4-yl)carbamoyl)-2-methyl-1,2,3,4-tetrahydroisoquinoline-6-sulfonimidamide], the IC50 was in the range of 1 to 5 µM. Same read-out and setting: the same measure for `Cc1cc(C(C)(C)O)sc1S(N)(=O)=NC(=O)Nc1c(C(C)C)cc(OC(F)F)cc1C(C)C` (centres unmarked) [Example 24, N′-(4-(difluoromethoxy)-2,6-diisopropylphenylcarbamoyl)-5-(2-hydroxypropan-2-yl)-3-methylthiophene-2-sulfonimidamide]: 1 to 5 µM; for `CC(C)c1cc(F)cc(C(C)C)c1NC(=O)N=S(N)(=O)c1ccc(S(C)(=O)=O)cc1` (single isomer, unassigned) [Example 145, (R)- or (S)-N′-(4-fluoro-2,6-diisopropylphenylcarbamoyl)-4-(methylsulfonyl)-benzenesulfonimidamide]: 5 to 30 µM; for `NS(=O)(=NC(=O)Nc1c2c(cc3c1CCC3)CCC2)c1ccc(CN2CCC(F)(F)C2)cc1` (centres unmarked) [Example 235, 4-((3,3-Difluoropyrrolidin-1-yl)methyl)-N′-(1,2,3,5,6,7-hexahydro-s-indacen-4-ylcarbamoyl)benzenesulfonimidamide]: 1 to 5 µM. Same read-out and setting: the same measure for `CC(C)(O)c1ncc(S(N)(=O)=NC(=O)Nc2c3c(cc4c2CC4)CC3)s1` (centres unmarked) [Example 226, 2-(2-Hydroxypropan-2-yl)-N′-(tricyclo[6.2.0.03,6]deca-1,3(6),7-trien-2-ylcarbamoyl)thiazole-5-sulfonimidamide]: 0.008 to 0.04 µM; for `CNCc1ccc(S(N)(=O)=NC(=O)Nc2c3c(cc4c2CCC4)CCC3)c(F)c1` (centres unmarked) [Example 287, 2-fluoro-N′-((1,2,3,5,6,7-hexahydro-s-indacen-4-yl)carbamoyl)-4-((methylamino)methyl)benzene-sulfonimidamide]: 1 to 5 µM; for `CC(C)c1cc(C#N)cc(C(C)C)c1NC(=O)N=S(N)(=O)c1sc(C(C)(C)O)nc1CO` (single isomer, unassigned) [Example 192, (S)- or (R)-N′-((4-cyano-2,6-diisopropylphenyl)carbamoyl)-4-(hydroxymethyl)-2-(2-hydroxypropan-2-yl)thiazole-5-sulfonimidamide]: 0.2 to 1 µM.

In the case of `NS(=O)(=NC(=O)Nc1c2c(c(F)c3c1CCC3)CCC2)c1ccc(O)cc1F` (centres unmarked) [Example 229, 2-Fluoro-N′-(8-fluoro-1,2,3,5,6,7-hexahydro-s-indacen-4-ylcarbamoyl)-4-hydroxybenzenesulfonimidamide], the IC50 is 1 to 5 µM. As to `Cc1cc(C(C)(C)O)ccc1S(N)(=O)=NC(=O)Nc1c(C(C)C)cc(OC(F)F)cc1C1CC1` (centres unmarked) [Example 29, N′-(2-cyclopropyl-4-(difluoromethoxy)-6-isopropylphenylcarbamoyl)-4-(2-hydroxypropan-2-yl)-2-methylbenzenesulfonimidamide], the concentration for half-maximal inhibition (IC50) was in the range of 5 to 30 µM.

Still in this assay, the particulars now being: Homo sapiens, THP-1, hTHP-1 assay containing 2% fetal bovine serum; average; given as bound; read-out: hTHP-1 IC50 (Average IC50 of compounds in hTHP-1 assay).
`CC(=O)N(C)Cc1cccc(S(N)(=O)=NC(=O)Nc2c3c(cc4c2CCC4)CCC3)c1` (single isomer, unassigned) [Example 367, (S) or (R)-N-(3-(N′-((1,2,3,5,6,7-hexahydro-s-indacen-4-yl)carbamoyl)sulfamid-imidoyl)benzyl)-N-methylacetamide]: the IC50 is greater than 30 µM. The same measure, in the same setting: the same measure for `CN(C)S(=O)(=NC(=O)Nc1c2c(cc3c1CCC3)CCC2)c1cc(C(C)(C)O)cs1` (single isomer, unassigned) [Example 358, (S) or (R) -N′-((1,2,3,5,6,7-hexahydro-s-indacen-4-yl)carbamoyl)-4-(2-hydroxypropan-2-yl)-N,N-dimethylthiophene-2-sulfonimidamide]: greater than 30 µM; for `CC(C)c1cc(F)cc(C(C)C)c1NC(=O)N=S(N)(=O)c1ccc(CN(C)C)cc1` (single isomer, unassigned) [Example 133, (R)- or (S)-4-((dimethylamino)methyl)-N′-(4-fluoro-2,6-diisopropylphenyl-carbamoyl)benzenesulfonimidamide]: greater than 30 µM; for `CC(C)c1cc(C#N)cc(C(C)C)c1NC(=O)N=S(N)(=O)c1ccc(S(C)(=O)=O)cc1` (single isomer, unassigned) [Example 197, (R)- or (S)-N′-((4-cyano-2,6-diisopropylphenyl)carbamoyl)-4-(methyl-sulfonyl)benzenesulfonimidamide]: greater than 30 µM. Consider `CC(C)c1csc(S(N)(=O)=NC(=O)Nc2c3c(cc4c2CCC4)CCC3)c1` (single isomer, unassigned) [Example 406, (S) or (R)-N′-((1,2,3,5,6,7-hexahydro-s-indacen-4-yl)carbamoyl)-4-isopropylthiophene-2-sulfonimidamide], for which the IC50 is […]. Same read-out and setting: the same measure for `CN1CCc2cc(S(N)(=O)=NC(=O)Nc3c4c(cc5c3CCC5)CCC4)ccc2C1` (single isomer, unassigned) [Example 396, (S) or (R)-N′-((1,2,3,5,6,7-hexahydro-s-indacen-4-yl)carbamoyl)-2-methyl-1,2,3,4-tetrahydroisoquinoline-6-sulfonimidamide]: greater than 30 µM; for `Cc1cc(NC(=O)N=S(N)(=O)c2cc(C)c(C(C)(C)O)s2)cc(C)n1` (centres unmarked) [Example 9, N′-((2,6-dimethylpyridin-4-yl)carbamoyl)-4-methyl-5-(2-hydroxypropan-2-yl)thiophene-2-sulfonimidamide]: greater than 30 µM. Regarding `CC(C)c1cc(C#N)cc(C(C)C)c1NC(=O)N=S(N)(=O)c1sc(C(C)(C)O)nc1CO` (single isomer, unassigned) [Example 193, (R)- or (S)-N′-((4-cyano-2,6-diisopropylphenyl)carbamoyl)-4-(hydroxymethyl)-2-(2-hydroxypropan-2-yl)thiazole-5-sulfonimidamide], the IC50 was greater than 30 µM. Take `COCc1ccccc1S(N)(=O)=NC(=O)Nc1c(C(C)C)cc(F)cc1C(C)C` (centres unmarked) [Example 213, N′-((4-fluoro-2,6-diisopropylphenyl)carbamoyl)-2-(methoxymethyl)benzene-sulfonimidamide]: the IC50 is greater than 30 µM.

The same assay, now with this note: Homo sapiens, THP-1, hTHP-1 assay containing 2% fetal bovine serum; average; numeric bound printed without unit; read-out: hTHP-1 IC50 (Average IC50 of compounds in hTHP-1 assay).
Consider `CC(C)(O)c1ccc(F)c(S(N)(=O)=NC(=O)Nc2c3c(c(F)c4c2CCC4)CCC3)c1` (single isomer, unassigned) [Example 169, (S)- or (R)-2-fluoro-N′-((8-fluoro-1,2,3,5,6,7-hexahydro-s-indacen-4-yl)carbamoyl)-5-(2-hydroxypropan-2-yl)benzenesulfonimidamide], for which the IC50 is greater than 5.59 µM.

The same assay, now with this note: hTHP-1 assay containing 2% fetal bovine serum; average; class symbols; read-out: hTHP-1 IC50 (Average IC50 of compounds in hTHP-1 assay).
As for `C#CCCC(=O)N(C)Cc1ccc(S(N)(=O)=NC(=O)Nc2c3c(cc4c2CCC4)CCC3)cc1` (single isomer, unassigned) [Example 313, (R) or (S)-N-(4-(N′-((1,2,3,5,6,7-hexahydro-s-indacen-4-yl)carbamoyl)sulfamid-imidoyl)benzyl)-N-methylpent-4-ynamide], the IC50 was 1 to 5 µM.
